The target of this test is HSP27 (Homo sapiens, UniProt P04792). The test can be described thus: Capillary electrophoresis of the CS protein precipitates (precipitated citrate synthase as measure of HSP27 inhibition). Type of test: biochemical. As to conditions: 10 μmol/L; 43° C. for 70 minutes; 750 μmol/L BVDU set at 1. The method, then:
Since the heat-denatured protein aggregates of the citrate synthase from Example 1 are not water-soluble, these can be separated completely from the supernatant by means of centrifugation at room temperature at 16,000×g, 10 min. By using capillary electrophoresis, the compositions of the separated precipitates can be shown and quantified. The relative quantity of protein of precipitated citrate synthase serves as a measure of the efficacy of the test substances.
In each case, 481 nmol/L HSP27 and 1.44 μmol/L citrate synthase in 40 mmol/L HEPES buffer, pH 7.4, were employed. The relative quantity of protein of the precipitated citrate synthase in each case was normalized using a defined quantity of BSA as internal standard. The relative quantity of protein that precipitated when using 750 μmol/L BVDU was set at 1. The other test substances (2 representatives of phenothiazine derivatives of general formula (V), 2 representatives of purine derivatives of formula (I) or (II)) were each employed at a concentration of 10 μmol/L.
Since the heat-denatured protein aggregates of the citrate synthase from Example 2 are not water-soluble, these can be separated completely from the supernatant by means of centrifugation at room temperature at 16,000×g, 10 min. By using capillary electrophoresis, the compositions of the separated precipitates can be shown and quantified. The relative quantity of protein of precipitated citrate synthase serves as a measure of the efficacy of the test substances.
In each case, 481 nM HSP27 and 1.44 μmol/L citrate synthase in 40 mmol/L HEPES buffer, pH 7.4, were employed. The relative quantity of protein of the precipitated citrate synthase in each case was normalized using a defined quantity of BSA as internal standard. The relative quantity of protein that precipitated when using 750 μmol/L BVDU was set at 1. The other test substances (2 representatives of phenothiazine derivatives of general formula (V), 2 representatives of thymine derivatives of formula (I) or (II)) were employed at a concentration of 10 μmol/L in each case.
Otherwise, the experiments were performed as described above: […]

Sequence of HSP27 (P04792 whole entry): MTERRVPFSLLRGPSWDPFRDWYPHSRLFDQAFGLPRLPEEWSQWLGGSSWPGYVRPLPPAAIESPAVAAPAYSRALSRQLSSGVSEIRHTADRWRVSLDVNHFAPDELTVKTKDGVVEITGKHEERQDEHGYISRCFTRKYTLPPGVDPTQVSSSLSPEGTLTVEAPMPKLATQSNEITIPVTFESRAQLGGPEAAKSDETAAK

In the case of `Cc1cn(C/C=C\CNC(=O)Cc2cccc3ccccc23)c(=O)[nH]c1=O` [N-[(2Z)-4-(5-Methyl-2,4-dioxo-3H-pyrimidin-1-yl)but-2-en-1-yl]-2-(naphthalen-1-yl)acetamide], the “Rel. quantity of protein prec. CS” value was found to be 0.81.
With `Cc1cn(CCCCNC(=O)Cc2ccc3ccccc3c2)c(=O)[nH]c1=O` [N-[4-(5-Methyl-2,4-dioxo-3H-pyrimidin-1-yl)butyl]-2-(naphthalen-2-yl)acetamide] the figure was 0.75.
For the molecule `COc1ccc(-c2cn([C@H]3CC(n4cc(C)c(=O)[nH]c4=O)O[C@@H]3CO)nn2)cc1` (stereo partly drawn) [1-[(4S,5S)-5-(Hydroxymethyl)-4-[4-(4-methoxyphenyl)-1,2,3-triazol-1-yl]oxolan-2-yl]-5-methyl-3H-pyrimidine-2,4-dione], the “Rel. quantity of protein prec. CS” value worked out at 0.75.
Turning to `Cc1cn(CCCCNC(=O)C(c2ccccc2)c2ccccc2)c(=O)[nH]c1=O` [N-[4-(5-Methyl-2,4-dioxo-3H-pyrimidin-1-yl)butyl]-2,2-diphenylacetamide], the “Rel. quantity of protein prec. CS” value is on record as 0.79.
Turning to `Cc1cn([C@H]2C[C@H](n3cc(-c4ccc(Cl)c(Cl)c4)nn3)[C@@H](CO)O2)c(=O)[nH]c1=O` [3′-Deoxy-3′-[4-(3,4-dichlorophenyl)-1H-1,2,3-triazol-1-yl]-thymidine], the “Rel. quantity of protein prec. CS” value turned out to be 0.86.
With `Cc1cn([C@H]2C[C@H](n3cc(-c4ccccn4)nn3)[C@@H](CO)O2)c(=O)[nH]c1=O` [3′-Deoxy-3′-[4-(2-pyridinyl)-1H-1,2,3-triazol-1]-yl]thymidine] the figure was 0.84; with `Cc1cn([C@H]2C[C@H](n3cc(-c4ccc(F)cc4)nn3)[C@@H](CO)O2)c(=O)[nH]c1=O` [3′-Deoxy-3′-[4-(4-fluorophenyl)-1H-1,2,3-triazol-1-yl]-thymidine], 0.66; with `O=C(NC/C=C\Cn1ccc(=O)[nH]c1=O)C1c2ccccc2OC2C=CC=CC21` (centres unmarked) [N-[(2Z)-4-(2,4-Dioxo-3H-pyrimidin-1-yl)but-2-en-1-yl]-9,9a-dihydro-4aH-xanthene-9-carboxamide], 0.85.
For the molecule `Cc1cn(CCCCNC(=O)Cc2ccc(-c3ccccc3)cc2)c(=O)[nH]c1=O` [N-[4-(5-Methyl-2,4-dioxo-3H-pyrimidin-1-yl)butyl]-2-(4-phenylphenyl)acetamide], the “Rel. quantity of protein prec. CS” value was found to be 0.67.
`Cc1cn([C@H]2C[C@H](n3cc(CCc4ccccc4)nn3)[C@@H](CO)O2)c(=O)[nH]c1=O` [3′-Deoxy-3′-[4-(2-phenylethyl)-1H-1,2,3-triazol-1-yl]-thymidine]: the “Rel. quantity of protein prec. CS” value turned out to be 0.74.
On to `Cc1cn(CCCCNC(=O)C2c3ccccc3-c3ccccc32)c(=O)[nH]c1=O` [N-[4-(5-Methyl-2,4-dioxo-3H-pyrimidin-1-yl)butyl]-9H-fluorene-9-carboxamide], for which the “Rel. quantity of protein prec. CS” value worked out at 0.58.
Take `Cc1cn([C@H]2C[C@H](n3cc(-c4ccc(Cl)cc4)nn3)[C@@H](CO)O2)c(=O)[nH]c1=O` [3′-[4-(4-Chlorophenyl)-1H-1,2,3-triazol-1-yl]-3′-deoxythymidine]: the “Rel. quantity of protein prec. CS” value amounted to 0.67.
With `Cc1cn(C/C=C\CNC(=O)C2c3ccccc3-c3ccccc32)c(=O)[nH]c1=O` [N-[(2Z)-4-(5-Methyl-2,4-dioxo-3H-pyrimidin-1-yl)but-2-en-1-yl]-9H-fluorene-9-carboxamide] the figure was 0.86.
For `Cc1cn(C2C[C@H](n3cc(-c4ccc(Br)cc4)nn3)[C@@H](CO)O2)c(=O)[nH]c1=O` (stereo partly drawn) [1-[(4S,5S)-4-[4-(4-Bromophenyl)-1,2,3-triazol-1-yl]-5-(hydroxymethyl)oxolan-2-yl]-5-methyl-3H-pyrimidine-2,4-dione] the value was 0.64.
For `Cc1cn(CCCCNC(=O)C2c3ccccc3Oc3ccccc32)c(=O)[nH]c1=O` [N-[4-(5-Methyl-2,4-dioxo-3H-pyrimidin-1-yl)butyl]-9H-xanthene-9-carboxamide] the value was 0.68; for `Cc1cn([C@H]2C[C@H](n3cc(C(C)(C)C)nn3)[C@@H](CO)O2)c(=O)[nH]c1=O` [3′-Deoxy-3′-[4-(2-methyl-2-propanyl)-1H-1,2,3-triazol-1-yl]thymidine], 0.61.
With `CCCc1cn([C@H]2C[C@H](n3cc(C)c(=O)[nH]c3=O)O[C@@H]2CO)nn1` [3′-Deoxy-3′-(4-propyl-1H-1,2,3-triazol-1-yl)thymidine], the “Rel. quantity of protein prec. CS” value amounted to 0.79.
With `Cc1cn(C/C=C\CNC(=O)Cc2ccc3ccccc3c2)c(=O)[nH]c1=O` [N-[(2Z)-4-(5-Methyl-2,4-dioxo-3H-pyrimidin-1-yl)but-2-en-1-yl]-2-(naphthalen-2-yl)acetamide] the figure was 0.83; with `O=C(Cc1ccc(-c2ccccc2)cc1)NC/C=C\Cn1ccc(=O)[nH]c1=O` [N-[(2Z)-4-(2,4-Dioxo-3H-pyrimidin-1-yl)but-2-en-1-yl]-2-(4-phenylphenyl)acetamide], 0.88; with `Cc1cn(C/C=C\CNC(=O)c2cccc3ccccc23)c(=O)[nH]c1=O` [N-[(2Z)-4-(5-Methyl-2,4-dioxo-3H-pyrimidin-1-yl)but-2-en-1-yl]naphthalene-1-carboxamide], 0.78.
For `Cc1cn(C2C[C@H](n3cc(-c4cccc(Br)c4)nn3)[C@@H](CO)O2)c(=O)[nH]c1=O` (stereo partly drawn) [1-[(4S,5S)-4-[4-(3-Bromophenyl)-1H-1,2,3-triazol-1-yl]-5-(hydroxymethyl)oxolan-2-yl]-5-methyl-1,2,3,4-tetrahydropyrimidine-2,4-dione], the “Rel. quantity of protein prec. CS” value was 0.81.
For `Cc1cn(C/C=C\CNC(=O)C(c2ccccc2)c2ccccc2)c(=O)[nH]c1=O` [N-[(2Z)-4-(5-Methyl-2,4-dioxo-3H-pyrimidin-1-yl)but-2-en-1-yl]-2,2-diphenylacetamide], the “Rel. quantity of protein prec. CS” value was determined as 0.82.
For `CCCCCc1cn([C@H]2C[C@H](n3cc(C)c(=O)[nH]c3=O)O[C@@H]2CO)nn1` [3′-Deoxy-3′-(4-pentyl-1H-1,2,3-triazol-1-yl)thymidine], the “Rel. quantity of protein prec. CS” value turned out to be 0.70.
Regarding `Cc1cn([C@H]2C[C@H](n3cc(CC4CCCC4)nn3)[C@@H](CO)O2)c(=O)[nH]c1=O` [3′-[4-(Cyclopentylmethyl)-1H-1,2,3-triazol-1-yl]-3′-deoxythymidine], the “Rel. quantity of protein prec. CS” value was found to be 0.66.
For `CCCCc1cn([C@H]2C[C@H](n3cc(C)c(=O)[nH]c3=O)O[C@@H]2CO)nn1` [3′-(4-Butyl-1H-1,2,3-triazol-1-yl)-3′-deoxythymidine] the value was 0.76; for `Cc1cn([C@H]2C[C@H](n3cc(-c4ccccc4)nn3)[C@@H](CO)O2)c(=O)[nH]c1=O` [3′-Deoxy-3′-(4-phenyl-1H-1,2,3-triazol-1-yl)thymidine], 0.79.

The values are drawn from patent publication US20170216297A1, “EFFICIENT INHIBITION OF HSP27” (TECHNISCHE UNIVERSITAET DRESDEN, priority 2014, published 2017).
